Data as given in patent publication US10011635B2, “Cyclic peptide conjugates and methods of use” (priority 2013, dated 2018).
Numbered stars: 1 amine (or outer) side, 2 acyl side, 3 side chain; on linkers, the order of the positions; unused ones are H or OH. Bridge positions count the residues as written; N and C are the ends. Square brackets hold non-standard residues; d marks the D form. Peptide text beside a SMILES is read from it. * marks the point of attachment. dProlinol(O-CH2CO) = O=C(COC[C@H]1CCCN1[*:1])[*:2]; N(2-Aminoethyl)Gly = O=C(CN(CCN[*:3])[*:1])[*:2]; Nle = CCCC[C@H](N)C(=O)O; Ms = CS(=O)(=O)*

What was measured:
U266 cells = experiment: In vitro cytotoxicity, PI staining and flow cytometry (U266); assay type: cell-based, human; settings: 1 hour at 37° C., PI staining, flow cytometry; compared to medium alone
Protocol: (§1) The cells were incubated with the conjugates and negative and positive controls for 1 hour at 37° C. followed by propidium iodide (PI) staining and flow cytometry analysis using FSC/SSC scatter densities and fluorescence to distinguish live and dead cells.

H929 cells = experiment: In vitro cytotoxicity, PI staining, flow cytometry and microscopy (H929); assay type: cell-based, human; settings: 1 hour at 37° C., flow cytometry, compared to medium alone
Protocol: FSC/SSC scatter densities distinguished live cells (right population) and dead cells (left population). This was confirmed by PI staining.
as §1

5TGM1 cells = experiment: 5TGM1 murine myeloma model in vivo (survival, serum IgG2b); settings: 5TGM1 i.v. in C57BL6/KaLwRij mice; i.v. once weekly for 3 weeks; 10 mg/kg Fc-Sec-MTI-101, 10 mg/kg Fc-stop or MTI-101 0.3285 mg/kg; n=5
Protocol: One million 5TGM1 cells were injected intravenously (i.v.) in C57BL6/KaLwRij mice. Mice injected i.v. were treated once weekly for 3 weeks with 10 mg/kg Fc-Sec-MTI-101, 10 mg/kg Fc-stop, or an equal payload of MTI-101 (0.3285 mg/kg). […] Medium survival was 35 days for control and MTI-101 IV equal payload, 26 days for […] and 62 days for Fc-Sec-MTI-101 (n=5 animals per group), as shown in FIG. 18B. IgG2b levels were measured by ELISA 28 days following tumor inoculation.
This is an excellent immune competent MM model in which drug response is monitored in the confines of the bone marrow microenvironment. […] 5TGM1 cells (1×10^6 in 100 μL of PBS) were injected intravenously (i.v.) into the tail vein of 6-week old C57 BL/KaLwRij mice (Harlen, Netherlands). Tumor was allowed to engraft for 10 days prior to the initiation of drug treatment.
To quantify tumor burden, blood was collected by submandibular bleeding and mice were monitored weekly by measuring 5TGM1 secreted IgG2b (paraprotein) in the serum by ELISA (FIG. 18B). Hind limb paralysis and hunching were considered as additional surrogate markers for morbidity.

[1] = Maximum tolerated dose of MTI-101; parameters: species or system C57 BL/KaLwRij mice; settings: mouse, in vivo, ip; i.p. 3× weekly for three weeks
multiple myeloma (MM) = settings: summary statement, no test described; cited from earlier work

With `CCCC[C@@H]1NC(=O)CN(S(C)(=O)=O)CCNC(=O)[C@H](CCCCN)NC(=O)[C@H](CC(C)C)NC(=O)[C@H](CCCCN)NC(=O)[C@H](CC(C)C)NC(=O)[C@H](CCCCN)NC(=O)COC[C@H]2CCCN2C(=O)[C@H](Cc2c[nH]c3ccccc23)NC(=O)[C@H](C)NC(=O)[C@H](C(C)C)NC(=O)[C@H](C(C)C)NC1=O` [MTI-101] (Ms-[N(2-Aminoethyl)Gly][Nle]VVAW[dProlinol(O-CH2CO)]KLKLK; lactam 1-C) the “cytotoxicity toward U266 cells” value (U266 cells) was “clearly killed”, the “cytotoxicity toward H929 cells” value (H929 cells) was “clearly killed” and the Medium survival (5TGM1 cells) was 35 days. For the same compound, the MTD [1] was 10 mg/kg and the IC50 potency (multiple myeloma (MM)) was “near nM”.
